Measurements as given in patent US5326882A, “Chemiluminescent 3-(substituted Adamant-2'-Ylidene) 1,2-dioxetanes” (Tropix, Inc., priority 1992, dated 1994).

Assays:
Assay type in all cases: biochemical
[1] = biological target: T1, alkaline phosphatase (calf intestine; Biozyme) (Bos taurus, UniProt P19111); test: Total dephosphorylation, chemiluminescence decay (Example XIII); details: 30° C., carbonate/bicarbonate buffer, listed as OH-Adamant-2'-ylidene (A isomer)
T1 construct: purchased Biozyme; host or cells: calf intestine
T1 sequence (P19111 20-506 limits assumed): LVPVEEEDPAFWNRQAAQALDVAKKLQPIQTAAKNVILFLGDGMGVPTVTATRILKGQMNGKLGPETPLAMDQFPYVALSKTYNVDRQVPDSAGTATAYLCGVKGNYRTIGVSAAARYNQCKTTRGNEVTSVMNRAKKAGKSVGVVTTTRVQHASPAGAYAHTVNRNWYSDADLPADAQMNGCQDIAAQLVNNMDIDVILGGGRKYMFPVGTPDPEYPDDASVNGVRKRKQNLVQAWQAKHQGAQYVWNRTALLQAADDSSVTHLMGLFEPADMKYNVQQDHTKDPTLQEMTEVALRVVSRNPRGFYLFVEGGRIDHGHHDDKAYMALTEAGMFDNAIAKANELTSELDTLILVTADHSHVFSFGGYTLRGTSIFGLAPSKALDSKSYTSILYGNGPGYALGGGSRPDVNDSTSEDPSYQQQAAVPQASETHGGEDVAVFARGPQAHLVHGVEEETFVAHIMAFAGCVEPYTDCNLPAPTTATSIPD

alkaline phosphatase [2] = biological target: T2, alkaline phosphatase (Bos taurus, UniProt P19111); test: Chemiluminescent signal and signal:background with enhancer polymers (Example XVII)
T2 sequence (P19111 20-506 limits assumed): as above
Method: Four sets of three tubes each, each tube in each set containing 450 μl of a 0.4 mM aqueous solution of one of the four 1,2-dioxetanes being compared in 0.1M diethanolamine containing 1 mM magnesium chloride, 0.02% sodium azide and 0.1% of the enhancer polymer, pH 10.0 (substrate buffer) were prepared and the background signal from each tube measured using a Berthold LB 952T luminometer (Berthold Instruments; Wildbad, Federal Republic of Germany).
Next, 50 μl of an aqueous solution, 2.83×10^-12 M of alkaline phosphatase in 0.1M diethanolamine containing 1 mM magnesium chloride, 0.02% sodium azide, pH 10.0, (final enzyme concentration 2.83×10^-13 M) was added to each tube and the chemiluminescent signals were measured in the luminometer at 5 and 20 minutes. The intensity of the chemiluminescent signals and the signal: background ratios obtained for each of the four 1,2-dioxetanes in the presence of the enhancer polymers are shown in Table III below.
The enhancer polymers used, and the symbols for such polymers used in Table III, were the following: […]

alkaline phosphatase [3] = biological target: T2, alkaline phosphatase; test: Alkaline phosphatase detection limits, LabSystems Luminoskan (Example XXV)
Summary of the method: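 Serial enzyme dilutions incubated in duplicate at room temperature with 0.4 mM 1,2-dioxetane in 0.1 M diethanolamine, 1 mM MgCl2, pH 10.0, plus 1 mg/ml polymeric enhancer. Chemiluminescence integrated over 5 s after 5 or 20 min; detection limit taken as enzyme concentration giving twice background.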

alkaline phosphatase [4] = biological target: T2, alkaline phosphatase; test: Half-time to plateau at low alkaline phosphatase concentration (Example XLI); details: 0.4 mM dioxetane at pH 10.0; 31.5° C.; 2.53 × 10^-13 M alkaline phosphatase; listed as HO-AMPPD-A

**Q.** Which “Total Decay Time” value [1] does the source give for `COC1(c2cccc(OP(=O)(O)O)c2)OOC12C1CC3CC2CC(O)(C3)C1` (single isomer, unassigned) [A-OH-AMPPD, disodium 3-(4-methoxyspiro-[1,2-dioxetane-3,2'-(5'-hydroxy)tricyclo[3.3.1.1^3,7]decan]-4-yl)phenyl phosphate] here?
**A.** 9 min

**Q.** And the “Decay Rate I” value ([1]; RLU's per minute)?
**A.** 1.3 RLU's per minute

**Q.** What about the S/N (alkaline phosphatase [2]; polymer BAEDM, 5 min) of the same compound?
**A.** 61.6

**Q.** And the SIGNAL (alkaline phosphatase [2]; polymer BAEDM, 5 min)?
**A.** 5887.3

**Q.** And the S/N (alkaline phosphatase [2]; polymer BAEDM, 20 min)?
**A.** 77.8

**Q.** What about the SIGNAL (alkaline phosphatase [2]; polymer BAEDM, 20 min) of the same compound?
**A.** 7433.5

**Q.** And the S/N (alkaline phosphatase [2]; polymer BAEDM, time 0)?
**A.** 1.0

**Q.** What about the SIGNAL (alkaline phosphatase [2]; polymer BAEDM, time 0 (background, before enzyme)) of the same compound?
**A.** 95.6

**Q.** And the S/N (alkaline phosphatase [2]; polymer BZ, 5 min)?
**A.** 27.0

**Q.** And the SIGNAL (alkaline phosphatase [2]; polymer BZ, 5 min)?
**A.** 2156.9

**Q.** What about the S/N (alkaline phosphatase [2]; polymer BZ, 20 min) of the same compound?
**A.** 31.7

**Q.** What about the SIGNAL (alkaline phosphatase [2]; polymer BZ, 20 min) of the same compound?
**A.** 2536.7

**Q.** And the S/N (alkaline phosphatase [2]; polymer BZ, time 0)?
**A.** 1.0

**Q.** And the SIGNAL (alkaline phosphatase [2]; polymer BZ, time 0 (background, before enzyme))?
**A.** 79.9

**Q.** And the S/N (alkaline phosphatase [2]; polymer DAA TMQ, 5 min)?
**A.** 61.7

**Q.** What about the SIGNAL (alkaline phosphatase [2]; polymer DAA TMQ, 5 min) of the same compound?
**A.** 5583.1

**Q.** What about the S/N (alkaline phosphatase [2]; polymer DAA TMQ, 20 min) of the same compound?
**A.** 69.7

**Q.** What about the SIGNAL (alkaline phosphatase [2]; polymer DAA TMQ, 20 min) of the same compound?
**A.** 6309.4

**Q.** What about the S/N (alkaline phosphatase [2]; polymer DAA TMQ, time 0) of the same compound?
**A.** 1.0

**Q.** And the SIGNAL (alkaline phosphatase [2]; polymer DAA TMQ, time 0 (background, before enzyme))?
**A.** 90.5

**Q.** And the S/N (alkaline phosphatase [2]; polymer DME(OH)B, 5 min)?
**A.** 46.1

**Q.** What about the SIGNAL (alkaline phosphatase [2]; polymer DME(OH)B, 5 min) of the same compound?
**A.** 3931.9

**Q.** What about the S/N (alkaline phosphatase [2]; polymer DME(OH)B, 20 min) of the same compound?
**A.** 66.2

**Q.** What about the SIGNAL (alkaline phosphatase [2]; polymer DME(OH)B, 20 min) of the same compound?
**A.** 5300.5

**Q.** What about the S/N (alkaline phosphatase [2]; polymer DME(OH)B, time 0) of the same compound?
**A.** 1.0

**Q.** What about the SIGNAL (alkaline phosphatase [2]; polymer DME(OH)B, time 0 (background, before enzyme)) of the same compound?
**A.** 85.2

**Q.** And the S/N (alkaline phosphatase [2]; polymer DMEB, 5 min)?
**A.** 77.1

**Q.** What about the SIGNAL (alkaline phosphatase [2]; polymer DMEB, 5 min) of the same compound?
**A.** 6160.6

**Q.** And the S/N (alkaline phosphatase [2]; polymer DMEB, 20 min)?
**A.** 98.1

**Q.** What about the SIGNAL (alkaline phosphatase [2]; polymer DMEB, 20 min) of the same compound?
**A.** 7835.2

**Q.** What about the S/N (alkaline phosphatase [2]; polymer DMEB, time 0) of the same compound?
**A.** 1.0

**Q.** What about the SIGNAL (alkaline phosphatase [2]; polymer DMEB, time 0 (background, before enzyme)) of the same compound?
**A.** 79.9

**Q.** And the S/N (alkaline phosphatase [2]; polymer DMQ TEQ, 5 min)?
**A.** 189.7

**Q.** And the SIGNAL (alkaline phosphatase [2]; polymer DMQ TEQ, 5 min)?
**A.** 17235.6

**Q.** What about the S/N (alkaline phosphatase [2]; polymer DMQ TEQ, 20 min) of the same compound?
**A.** 227.9

**Q.** And the SIGNAL (alkaline phosphatase [2]; polymer DMQ TEQ, 20 min)?
**A.** 20702.2

**Q.** What about the S/N (alkaline phosphatase [2]; polymer DMQ TEQ, time 0) of the same compound?
**A.** 1.0

**Q.** And the SIGNAL (alkaline phosphatase [2]; polymer DMQ TEQ, time 0 (background, before enzyme))?
**A.** 90.8

**Q.** And the S/N (alkaline phosphatase [2]; polymer MPB, 5 min)?
**A.** 140.7

**Q.** And the SIGNAL (alkaline phosphatase [2]; polymer MPB, 5 min)?
**A.** 13165.3

**Q.** What about the S/N (alkaline phosphatase [2]; polymer MPB, 20 min) of the same compound?
**A.** 172.7

**Q.** What about the SIGNAL (alkaline phosphatase [2]; polymer MPB, 20 min) of the same compound?
**A.** 16159.2

**Q.** What about the S/N (alkaline phosphatase [2]; polymer MPB, time 0) of the same compound?
**A.** 1.0

**Q.** What about the SIGNAL (alkaline phosphatase [2]; polymer MPB, time 0 (background, before enzyme)) of the same compound?
**A.** 93.6

**Q.** What about the S/N (alkaline phosphatase [2]; polymer NONE, 5 min) of the same compound?
**A.** 32.9

**Q.** And the SIGNAL (alkaline phosphatase [2]; polymer NONE, 5 min, enzyme 2.83×10^-13 M)?
**A.** 2863.6

**Q.** What about the S/N (alkaline phosphatase [2]; polymer NONE, 20 min) of the same compound?
**A.** 36.3

**Q.** What about the SIGNAL (alkaline phosphatase [2]; polymer NONE, 20 min, enzyme 2.83×10^-13 M) of the same compound?
**A.** 3160.8

**Q.** What about the S/N (alkaline phosphatase [2]; polymer NONE, time 0) of the same compound?
**A.** 1.0

**Q.** What about the SIGNAL (alkaline phosphatase [2]; polymer NONE, time 0 (background, before enzyme)) of the same compound?
**A.** 87.0

**Q.** What about the S/N (alkaline phosphatase [2]; polymer S/TMQ(1:2), 5 min) of the same compound?
**A.** 112.5

**Q.** What about the SIGNAL (alkaline phosphatase [2]; polymer S/TMQ(1:2), 5 min) of the same compound?
**A.** 10193.8

**Q.** And the S/N (alkaline phosphatase [2]; polymer S/TMQ(1:2), 20 min)?
**A.** 158.6

**Q.** And the SIGNAL (alkaline phosphatase [2]; polymer S/TMQ(1:2), 20 min)?
**A.** 11365.1

**Q.** What about the S/N (alkaline phosphatase [2]; polymer S/TMQ(1:2), time 0) of the same compound?
**A.** 1.0

**Q.** What about the SIGNAL (alkaline phosphatase [2]; polymer S/TMQ(1:2), time 0 (background, before enzyme)) of the same compound?
**A.** 90.6

**Q.** What about the S/N (alkaline phosphatase [2]; polymer S/TMQ(1:4), 5 min) of the same compound?
**A.** 114.5

**Q.** And the SIGNAL (alkaline phosphatase [2]; polymer S/TMQ(1:4), 5 min)?
**A.** 9294.6

**Q.** What about the S/N (alkaline phosphatase [2]; polymer S/TMQ(1:4), 20 min) of the same compound?
**A.** 148.1

**Q.** And the SIGNAL (alkaline phosphatase [2]; polymer S/TMQ(1:4), 20 min)?
**A.** 1201.7

**Q.** And the S/N (alkaline phosphatase [2]; polymer S/TMQ(1:4), time 0)?
**A.** 1.0

**Q.** And the SIGNAL (alkaline phosphatase [2]; polymer S/TMQ(1:4), time 0 (background, before enzyme))?
**A.** 81.2

**Q.** And the SIGNAL (alkaline phosphatase [2]; polymer SAPPHIRE (BDMQ), time 0 (background, before enzyme))?
**A.** 86.1

**Q.** And the S/N (alkaline phosphatase [2]; polymer SAPPHIRE, 5 min)?
**A.** 244.5

**Q.** And the SIGNAL (alkaline phosphatase [2]; polymer SAPPHIRE, 5 min)?
**A.** 21051.3

**Q.** What about the S/N (alkaline phosphatase [2]; polymer SAPPHIRE, 20 min) of the same compound?
**A.** 292.3

**Q.** What about the SIGNAL (alkaline phosphatase [2]; polymer SAPPHIRE, 20 min) of the same compound?
**A.** 25330.3

**Q.** What about the S/N (alkaline phosphatase [2]; polymer SAPPHIRE, time 0) of the same compound?
**A.** 1.0

**Q.** And the S/N (alkaline phosphatase [2]; polymer TBQ, 5 min)?
**A.** 366.0

**Q.** What about the SIGNAL (alkaline phosphatase [2]; polymer TBQ, 5 min) of the same compound?
**A.** 37244.5

**Q.** What about the S/N (alkaline phosphatase [2]; polymer TBQ, 20 min) of the same compound?
**A.** 438.0

**Q.** And the SIGNAL (alkaline phosphatase [2]; polymer TBQ, 20 min)?
**A.** 44569.8

**Q.** And the S/N (alkaline phosphatase [2]; polymer TBQ, time 0)?
**A.** 1.0

**Q.** What about the SIGNAL (alkaline phosphatase [2]; polymer TBQ, time 0 (background, before enzyme)) of the same compound?
**A.** 101.8

**Q.** What about the S/N (alkaline phosphatase [2]; polymer TEQ, 5 min) of the same compound?
**A.** 45.24

**Q.** And the SIGNAL (alkaline phosphatase [2]; polymer TEQ, 5 min)?
**A.** 15779.8

**Q.** And the S/N (alkaline phosphatase [2]; polymer TEQ, 20 min)?
**A.** 54.7

**Q.** And the SIGNAL (alkaline phosphatase [2]; polymer TEQ, 20 min)?
**A.** 1908.9

**Q.** What about the S/N (alkaline phosphatase [2]; polymer TEQ, time 0) of the same compound?
**A.** 1.0

**Q.** What about the SIGNAL (alkaline phosphatase [2]; polymer TEQ, time 0 (background, before enzyme)) of the same compound?
**A.** 348.8

**Q.** And the S/N (alkaline phosphatase [2]; polymer TMQ, 5 min)?
**A.** 113.6

**Q.** And the SIGNAL (alkaline phosphatase [2]; polymer TMQ, 5 min)?
**A.** 8853.4

**Q.** And the S/N (alkaline phosphatase [2]; polymer TMQ, 20 min)?
**A.** 149.6

**Q.** What about the SIGNAL (alkaline phosphatase [2]; polymer TMQ, 20 min) of the same compound?
**A.** 11658.3

**Q.** What about the S/N (alkaline phosphatase [2]; polymer TMQ, time 0) of the same compound?
**A.** 1.0

**Q.** What about the SIGNAL (alkaline phosphatase [2]; polymer TMQ, time 0 (background, before enzyme)) of the same compound?
**A.** 77.9

**Q.** And the “Alkaline phosphatase detection limit (at 2× background)” value (shortened to “Alkaline phosphatase detection limit”) (alkaline phosphatase [3]; SAPPHIRE II, 5 MINUTE INCUBATION)?
**A.** 0.0014 pM

**Q.** And the “Alkaline phosphatase detection limit” value (alkaline phosphatase [3]; SAPPHIRE II, 20 MINUTE INCUBATION)?
**A.** 0.00031 pM

**Q.** And the “Alkaline phosphatase detection limit” value (alkaline phosphatase [3]; SAPPHIRE, 5 MINUTE INCUBATION)?
**A.** 0.0031 pM

**Q.** And the “Alkaline phosphatase detection limit” value (alkaline phosphatase [3]; SAPPHIRE, 20 MINUTE INCUBATION)?
**A.** 0.0011 pM

**Q.** What about the “HALF-TIME TO PLATEAU (min.) AL LOW ALK PHOS CONCENTRATION” value (alkaline phosphatase [4]) of the same compound?
**A.** 0.93 min
